Data set [1] relates to primary human osteoblasts. Kind of data set: Cytotoxicity assay: LDH activity in culture medium. Format: cell-based. The conditions noted are these: for LDH activity compared to alginate-coated scaffolds without SIM: 14-day period. The procedure: Cells from passages 7-9 were seeded on scaffolds at a density of 400.000 cells/ml. […] Scaffolds soaked with culture medium were placed in 48-well culture plates. […] The culture medium was replaced every other day. Collected medium was saved for use in cytotoxicity, alkaline phosphatase (ALP) activity and protein expression assays.

Data set [2] deals with MC3T3-E1 cells. Kind of data set: Gene expression of adhesion and osteoblast markers by real-time RT-PCR, cells on alginate hydrogels. The conditions noted are these: 50 μg/ml in 2% alginate gel. The data set is classed as cell-based, mouse. The procedure: (§1) The mouse osteoblastic cell line MC3T3-E1 (DSMZ, Braunschweig, Germany) was maintained as previously described (Tiainen H et al., 2011). Before seeding, 24-well culture plates containing crosslinked alginate hydrogels were washed with 750 μl of culture media to remove the excess of CaCl2. After evaluation of the efficiency of cell adhesion on 2% alginate gel using different cell densities, for the final experiments, cells were seeded at a density of 100 000 cells/well. Media was refreshed twice a week. Culture media was collected 24 h after seeding to study cell viability. Cells were harvested at days 14 and 21 to analyze gene expression of adhesion and osteogenic-related markers using real-time RT-PCR. Cultures were routinely observed using light microscopy (Leica DMIRB, Leica Microsystems Wetzlar GmbH, Germany).
Total RNA was isolated using Tripure® (Roche Diagnostics, Mannheim, Germany), according to the manufacturer's protocol. Total RNA was quantified at 260 nm using a Nanodrop spectrophotometer (NanoDrop Technologies, Wilmington, Del., USA).
The same amount of RNA (350 ng) was reverse transcribed to cDNA using high capacity RNA-to-cDNA kit (Applied Biosystems, Foster City, Calif.), according to the protocol of the supplier. Aliquots of each cDNA were frozen (−20° C.) until the PCR reactions were carried out.
Real-time PCR was performed in the Lightcycler 480® (Roche Diagnostics, Mannheim, Germany) using SYBR green detection. Real-time PCR was done for two reference genes (18SrRNA and glyceraldehyde-3-phosphate dehydrogenase (GAPDH)) and ten target genes (integrin alpha 8 (Itga8), integrin beta1 (Itgb1), integrin beta 3 (Itgb3), fibronectin 1 (Fn1), bone morphogenetic protein 2 (Bmp2), collagen type I (Coll-I), bone sialoprotein (Bsp), alkaline phosphatase (Alp), osteocalcin (Oc) and osteopontin (Opn)).
The primer sequences are detailed in Table 2. Reaction conditions and relative quantification have been done as previously described (Tiainen H et al., 2011).
Background: Quantitative PCR measures a nucleic acid by following its amplification.

Data set [3] in a line: Peptide release profile from 2% alginate hydrogel (fluorescence spectroscopy). The data set is classed as physicochemical. The procedure:
To study the peptide release profile, P2 was labeled with FITC. The release of peptide contained into the 2% alginate hydrogel (50 μg/ml) was quantified by fluorescence spectroscopy. First, alginate hydrogels were washed with culture media to remove the excess of CaCl2. Then, 750 μl of cell culture media were added onto peptide loaded alginate hydrogel. The samples were incubated at 37° C. and 5% CO2 for 21 days and cell culture media was changed twice a week. At prefixed time points (24 h, 4 d, 7 d, 11 d, 14 d, 18 d and 21 d), supernatants were collected and analyzed by fluorescence spectroscopy (λ ex 490 nm and λ em 525 nm) to determine the amount of peptide released to the media. The amount of peptide released during the washing step was also measured. The experiment was performed three times, and each sample analyzed in triplicate.
Relative fluorescence units were correlated with the amount of peptide released using a linear standard curve for each time point.

Data set [4] deals with MC3T3-E1 cells. The data set can be described thus: Cell viability: LDH activity in culture media, cells on alginate hydrogels. Format: cell-based, mouse. The conditions noted are these: 50 μg/ml in alginate gel. The procedure:
as §1
The LDH activity determined in the culture media after 24 h was taken as an indicator of membrane leakage or cell lysis. The activity of the cytosolic enzyme was estimated as previously described (Rupert M et al., 2011).

Data set [5] in a line: Peptide 2 release profile from TiO2 scaffolds coated with 2% alginate gel (UV-Vis). The data set is classed as physicochemical. The conditions noted are these: P2-alginate-coated scaffolds, distilled water, 37° C. Here is the method: In order to mimic cell culture conditions, the samples were agitated on an orbital shaker at 200 rpm (IKA® Schüttler MTS 2, Germany) for 6 h at 37° C. and in humidity conditions (using a distilled water container). Then, samples were maintained at 37° C. in a humidified atmosphere for up to 21 days. At prefixed time points (2d, 5d, 7d, 9d, 12d, 14d, 16d, 19d and 21d), distilled water was collected and fresh distilled water was added into each well. Sample absorbances were analyzed by UV-Vis spectrophotometer (PerkinElmer® Lambda 25 UV/Vis Systems, USA) at a wavelength of 206 nm to determine the amount of peptide released. In parallel, TiO2 scaffolds coated with one layer of 2% alginate gel were used as control to subtract absorbance values obtained from degradation products from alginate.
Relative absorbance units were correlated with the amount of peptide released using a linear standard curve for each time point and the cumulative P2 released was then calculated. The experiment was performed in triplicate.

Ends that are not written are not given here.

In the case of `CCC(C)(C)C(=O)O[C@H]1C[C@@H](C)C=C2C=C[C@H](C)[C@H](CC[C@@H]3C[C@@H](O)CC(=O)O3)[C@H]21` [SIM, simvastatin], the “LDH activity compared to alginate-coated scaffolds without SIM” value in data set [1] (scaffolds with 10 nM SIM) and in data set [1] (scaffolds with 10 μM SIM) was “Neither of the SIM concentrations caused a significant increase” each time. Besides, the “LDH activity, scaffolds with 10 μM SIM compared to scaffolds with 10 nM SIM” value in data set [1] (throughout the 14-day period) is “higher”.
With PLVPSQPLVPSQPLVPSQPQPPLPP [Peptide P2], in the data set on MC3T3-E1 cells [2] (14 days), the “Expression of Opn compared to control” value is reported as “decreased significantly”, the “Fn1 mRNA compared to control” value was “decreased significantly”, the “Itgb1 mRNA levels compared to control” value is given as “significantly decreased” and the “Itgb3 mRNA compared to control” value is listed as “decreased significantly”. In the data set with MC3T3-E1 cells [2] (21 days), the “ALP mRNA levels compared to control” value is listed as “significantly decreased”; the “Bmp2 relative mRNA levels compared to EMD” value was “decreased”; the “Itgb3 and Fn1 mRNA compared to control” value is on record as “no differences”. For the same compound, in data set [3] (P2 FITC-labeled, 50 μg/ml in 2% alginate hydrogel, culture media, 37° C.), the “burst release of the peptide during the first 24 h of incubation” value is on record as 54.67%. The “total peptide theoretically contained in the hydrogel not released after 21 days” value in data set [3] (P2 FITC-labeled, 2% alginate hydrogel, 21 days) worked out at 5.6%. For the same compound, the “peptide slowly released up to 11 days” value in data set [3] (P2 FITC-labeled, 2% alginate hydrogel, after the first 24 h, up to 11 days) came to 25.8%. Besides, in data set [3] (washing of alginate hydrogels with culture media to remove excess CaCl2), the “loaded peptide released during the washing step” value worked out at 12.7%. Further, the “cell viability compared to EMD” value in the data set on MC3T3-E1 cells [4] (after 24 h) is recorded as “significantly increased”. Moreover, in data set [5], the “amount of peptide released after 5 days” value was 9.4 % of the cumulative amount rel and the “burst release of the peptide during the first 2 days of incubation” value was 42.8 % of the cumulative amount of P2 released after 21 days.
On to “PHQPMQPQPPVHPMQPLPPQPPLPP (Synthetic biomineralizing peptide) [Peptide P6]”, for which, in the data set with MC3T3-E1 cells [2] (14 days), the “ALP mRNA levels compared to control” value is reported as “significantly decreased”, the “Expression of Opn compared to control” value is recorded as “decreased significantly”, the “Fn1 mRNA compared to control” value is recorded as “decreased significantly” and the “Itgb1 mRNA levels compared to control” value was “significantly decreased”. Also, the “Itgb3 mRNA compared to control” value in the data set on MC3T3-E1 cells [2] (14 days) was “decreased significantly”. Moreover, in the data set with MC3T3-E1 cells [2] (14 days of treatment), the “Bmp2 relative mRNA levels” value is recorded as “increased significantly”. For the same compound, in the data set on MC3T3-E1 cells [2] (21 days), the “ALP mRNA levels compared to control” value is on record as “significantly decreased”; the “Itgb1 mRNA levels compared to EMD” value is “reduced significantly”; the “Itgb3 and Fn1 mRNA compared to control” value is on record as “no differences”; the “Oc mRNA levels compared to control” value is reported as “increased”.
Turning to “PLVPSSPLVPCCPLVPCCPSPPLPP (Synthetic biomineralizing peptide) [Peptide P5]”, in the data set on MC3T3-E1 cells [2] (21 days), the “Oc mRNA levels compared to control” value is recorded as “increased”. Also, in the data set with MC3T3-E1 cells [2] ("after days of culture" (number not given)), the “Expression of Itga8 compared to control” value is “increased”. The Itga8 expression entry with MC3T3-E1 cells [2] (after 21 days of treatment) is reported as “markedly”. Besides, the “toxic effects compared to EMD and to untreated alginate gel” value in the data set on MC3T3-E1 cells [4] (24 h) is reported as “significantly lower”.
